Reference: patent US4442044A, “Process for preparing monoesters and diesters of N-alkyl substituted amino methyl phosphonic acid” (priority 1983, dated 1984)

How the values were obtained:
Test in all cases: post-emergent herbicidal activity, greenhouse
Assay type in all cases: in vivo
Hemp Sesbania = conditions: Table II
Outline: (§1)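 Seeds or propagules sown in compacted top soil, grown 2–3 weeks in greenhouse, then sprayed with compound solution/suspension containing ~0.4% emulsifier at tabulated rates. Injury scored visually versus untreated controls at ~2 and 4 weeks after treatment, expressed as a herbicidal activity index.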

Lambsquarters = system: Lambsquarters
Outline: as §1

Yellow Nutsedge = conditions: Table I, 4 WAT
Outline: as §1

Cocklebur = system: Cocklebur
Outline: as §1

Smartweed = system: Smartweed
Outline: as §1

Downy Brome = system: Downy Brome
Outline: as §1

Wheat = conditions: Table II
Outline: as §1

Morningglory = system: Morningglory
Outline: as §1

Panicum Spp = conditions: Table II
Outline: as §1

Sugar Beet = conditions: Table II
Outline: as §1

Barnyardgrass = system: Barnyardgrass
Outline: as §1

Rice = conditions: Table II
Outline: as §1

Wild Buckwheat = conditions: Table II
Outline: as §1

Canada Thistle = conditions: Table I, 4 WAT
Outline: as §1

Crabgrass = conditions: Table II, 4 WAT
Outline: as §1

Sorghum = conditions: Table II
Outline: as §1

Johnsongrass = conditions: Table I, 4 WAT
Outline: as §1

Quackgrass = conditions: Table I, 4 WAT
Outline: as §1

Velvetleaf = system: Velvetleaf
Outline: as §1

Soybean = conditions: Table II
Outline: as §1

SMILES: CCOC(=O)CNCP(=O)(O)OCC(Cl)(Cl)Cl [Example 27, glycine, N-[[hydroxy(2,2,2-trichloroethoxy)-phosphinyl]methyl]-, ethyl ester]
- post-emergent herbicidal activity index (Hemp Sesbania; 2 WAT, 0.01 kg/h): 0 (0-24% control)
- post-emergent herbicidal activity index (Hemp Sesbania; 2 WAT, 0.06 kg/h): 0 (0-24% control)
- post-emergent herbicidal activity index (Hemp Sesbania; 4 WAT, 0.28 kg/h): 1 (25-49% control)
- post-emergent herbicidal activity index (Hemp Sesbania; 4 WAT, 1.12 kg/h): 2 (50-74% control)
- post-emergent herbicidal activity index (Hemp Sesbania; 4 WAT, 5.6 kg/h): 3 (75-99% control)
- post-emergent herbicidal activity index (Lambsquarters; Table I, 4 WAT, 5.6 kg/h): 3 (75-99% control)
- post-emergent herbicidal activity index (Lambsquarters; Table I, 4 WAT, 11.2 kg/h): 3 (75-99% control)
- post-emergent herbicidal activity index (Lambsquarters; Table II, 2 WAT, 0.01 kg/h): 0 (0-24% control)
- post-emergent herbicidal activity index (Lambsquarters; Table II, 2 WAT, 0.06 kg/h): 0 (0-24% control)
- post-emergent herbicidal activity index (Lambsquarters; Table II, 4 WAT, 0.28 kg/h): 1 (25-49% control)
- post-emergent herbicidal activity index (Lambsquarters; Table II, 4 WAT, 1.12 kg/h): 2 (50-74% control)
- post-emergent herbicidal activity index (Lambsquarters; Table II, 4 WAT, 5.6 kg/h): 3 (75-99% control)
- post-emergent herbicidal activity index (Yellow Nutsedge; 5.6 kg/h): 0 (0-24% control)
- post-emergent herbicidal activity index (Yellow Nutsedge; 11.2 kg/h): 2 (50-74% control)
- post-emergent herbicidal activity index (Cocklebur; Table I, 4 WAT, 5.6 kg/h): 2 (50-74% control)
- post-emergent herbicidal activity index (Cocklebur; Table I, 4 WAT, 11.2 kg/h): 2 (50-74% control)
- post-emergent herbicidal activity index (Cocklebur; Table II, 2 WAT, 0.01 kg/h): 0 (0-24% control)
- post-emergent herbicidal activity index (Cocklebur; Table II, 2 WAT, 0.06 kg/h): 0 (0-24% control)
- post-emergent herbicidal activity index (Cocklebur; Table II, 4 WAT, 0.28 kg/h): 2 (50-74% control)
- post-emergent herbicidal activity index (Cocklebur; Table II, 4 WAT, 1.12 kg/h): 2 (50-74% control)
- post-emergent herbicidal activity index (Cocklebur; Table II, 4 WAT, 5.6 kg/h): 3 (75-99% control)
- post-emergent herbicidal activity index (Smartweed; Table I, 4 WAT, 5.6 kg/h): 2 (50-74% control)
- post-emergent herbicidal activity index (Smartweed; Table I, 4 WAT, 11.2 kg/h): 2 (50-74% control)
- post-emergent herbicidal activity index (Smartweed; Table II, 2 WAT, 0.01 kg/h): 0 (0-24% control)
- post-emergent herbicidal activity index (Smartweed; Table II, 2 WAT, 0.06 kg/h): 0 (0-24% control)
- post-emergent herbicidal activity index (Smartweed; Table II, 4 WAT, 0.28 kg/h): 3 (75-99% control)
- post-emergent herbicidal activity index (Smartweed; Table II, 4 WAT, 1.12 kg/h): 2 (50-74% control)
- post-emergent herbicidal activity index (Smartweed; Table II, 4 WAT, 5.6 kg/h): 3 (75-99% control)
- post-emergent herbicidal activity index (Downy Brome; Table I, 4 WAT, 5.6 kg/h): 0 (0-24% control)
- post-emergent herbicidal activity index (Downy Brome; Table I, 4 WAT, 11.2 kg/h): 0 (0-24% control)
- post-emergent herbicidal activity index (Downy Brome; Table II, 2 WAT, 0.01 kg/h): 0 (0-24% control)
- post-emergent herbicidal activity index (Downy Brome; Table II, 2 WAT, 0.06 kg/h): 0 (0-24% control)
- post-emergent herbicidal activity index (Downy Brome; Table II, 4 WAT, 0.28 kg/h): 3 (75-99% control)
- post-emergent herbicidal activity index (Downy Brome; Table II, 4 WAT, 1.12 kg/h): 3 (75-99% control)
- post-emergent herbicidal activity index (Downy Brome; Table II, 4 WAT, 5.6 kg/h): 3 (75-99% control)
- post-emergent herbicidal activity index (Wheat; 2 WAT, 0.01 kg/h): 0 (0-24% control)
- post-emergent herbicidal activity index (Wheat; 2 WAT, 0.06 kg/h): 0 (0-24% control)
- post-emergent herbicidal activity index (Wheat; 4 WAT, 0.28 kg/h): 3 (75-99% control)
- post-emergent herbicidal activity index (Wheat; 4 WAT, 1.12 kg/h): 2 (50-74% control)
- post-emergent herbicidal activity index (Wheat; 4 WAT, 5.6 kg/h): 4 (100% control)
- post-emergent herbicidal activity index (Morningglory; Table I, 4 WAT, 5.6 kg/h): 2 (50-74% control)
- post-emergent herbicidal activity index (Morningglory; Table I, 4 WAT, 11.2 kg/h): 2 (50-74% control)
- post-emergent herbicidal activity index (Morningglory; Table II, 2 WAT, 0.01 kg/h): 0 (0-24% control)
- post-emergent herbicidal activity index (Morningglory; Table II, 2 WAT, 0.06 kg/h): 0 (0-24% control)
- post-emergent herbicidal activity index (Morningglory; Table II, 4 WAT, 0.28 kg/h): 2 (50-74% control)
- post-emergent herbicidal activity index (Morningglory; Table II, 4 WAT, 1.12 kg/h): 2 (50-74% control)
- post-emergent herbicidal activity index (Morningglory; Table II, 4 WAT, 5.6 kg/h): 2 (50-74% control)
- post-emergent herbicidal activity index (Panicum Spp; 2 WAT, 0.01 kg/h): 0 (0-24% control)
- post-emergent herbicidal activity index (Panicum Spp; 2 WAT, 0.06 kg/h): 0 (0-24% control)
- post-emergent herbicidal activity index (Panicum Spp; 4 WAT, 0.28 kg/h): 3 (75-99% control)
- post-emergent herbicidal activity index (Panicum Spp; 4 WAT, 1.12 kg/h): 4 (100% control)
- post-emergent herbicidal activity index (Panicum Spp; 4 WAT, 5.6 kg/h): 4 (100% control)
- post-emergent herbicidal activity index (Sugar Beet; 2 WAT, 0.01 kg/h): 0 (0-24% control)
- post-emergent herbicidal activity index (Sugar Beet; 2 WAT, 0.06 kg/h): 0 (0-24% control)
- post-emergent herbicidal activity index (Sugar Beet; 4 WAT, 0.28 kg/h): 2 (50-74% control)
- post-emergent herbicidal activity index (Sugar Beet; 4 WAT, 1.12 kg/h): 2 (50-74% control)
- post-emergent herbicidal activity index (Sugar Beet; 4 WAT, 5.6 kg/h): 3 (75-99% control)
- post-emergent herbicidal activity index (Barnyardgrass; Table I, 4 WAT, 5.6 kg/h): 3 (75-99% control)
- post-emergent herbicidal activity index (Barnyardgrass; Table I, 4 WAT, 11.2 kg/h): 3 (75-99% control)
- post-emergent herbicidal activity index (Barnyardgrass; Table II, 2 WAT, 0.01 kg/h): 0 (0-24% control)
- post-emergent herbicidal activity index (Barnyardgrass; Table II, 2 WAT, 0.06 kg/h): 0 (0-24% control)
- post-emergent herbicidal activity index (Barnyardgrass; Table II, 4 WAT, 0.28 kg/h): 3 (75-99% control)
- post-emergent herbicidal activity index (Barnyardgrass; Table II, 4 WAT, 1.12 kg/h): 3 (75-99% control)
- post-emergent herbicidal activity index (Barnyardgrass; Table II, 4 WAT, 5.6 kg/h): 3 (75-99% control)
- post-emergent herbicidal activity index (Rice; 2 WAT, 0.01 kg/h): 0 (0-24% control)
- post-emergent herbicidal activity index (Rice; 2 WAT, 0.06 kg/h): 0 (0-24% control)
- post-emergent herbicidal activity index (Rice; 4 WAT, 0.28 kg/h): 3 (75-99% control)
- post-emergent herbicidal activity index (Rice; 4 WAT, 1.12 kg/h): 3 (75-99% control)
- post-emergent herbicidal activity index (Rice; 4 WAT, 5.6 kg/h): 3 (75-99% control)
- post-emergent herbicidal activity index (Wild Buckwheat; 2 WAT, 0.01 kg/h): 0 (0-24% control)
- post-emergent herbicidal activity index (Wild Buckwheat; 2 WAT, 0.06 kg/h): 0 (0-24% control)
- post-emergent herbicidal activity index (Wild Buckwheat; 4 WAT, 0.28 kg/h): 2 (50-74% control)
- post-emergent herbicidal activity index (Wild Buckwheat; 4 WAT, 1.12 kg/h): 2 (50-74% control)
- post-emergent herbicidal activity index (Wild Buckwheat; 4 WAT, 5.6 kg/h): 2 (50-74% control)
- post-emergent herbicidal activity index (Canada Thistle; 5.6 kg/h): 1 (25-49% control)
- post-emergent herbicidal activity index (Canada Thistle; 11.2 kg/h): 2 (50-74% control)
- post-emergent herbicidal activity index (Crabgrass; 1.12 kg/h): 3 (75-99% control)
- post-emergent herbicidal activity index (Crabgrass; 5.6 kg/h): 4 (100% control)
- post-emergent herbicidal activity index (Sorghum; 2 WAT, 0.01 kg/h): 0 (0-24% control)
- post-emergent herbicidal activity index (Sorghum; 2 WAT, 0.06 kg/h): 0 (0-24% control)
- post-emergent herbicidal activity index (Sorghum; 4 WAT, 0.28 kg/h): 2 (50-74% control)
- post-emergent herbicidal activity index (Sorghum; 4 WAT, 1.12 kg/h): 2 (50-74% control)
- post-emergent herbicidal activity index (Sorghum; 4 WAT, 5.6 kg/h): 3 (75-99% control)
- post-emergent herbicidal activity index (Johnsongrass; 5.6 kg/h): 2 (50-74% control)
- post-emergent herbicidal activity index (Johnsongrass; 11.2 kg/h): 0 (0-24% control)
- post-emergent herbicidal activity index (Quackgrass; 5.6 kg/h): 1 (25-49% control)
- post-emergent herbicidal activity index (Quackgrass; 11.2 kg/h): 1 (25-49% control)
- post-emergent herbicidal activity index (Velvetleaf; Table I, 4 WAT, 5.6 kg/h): 1 (25-49% control)
- post-emergent herbicidal activity index (Velvetleaf; Table I, 4 WAT, 11.2 kg/h): 2 (50-74% control)
- post-emergent herbicidal activity index (Velvetleaf; Table II, 2 WAT, 0.01 kg/h): 0 (0-24% control)
- post-emergent herbicidal activity index (Velvetleaf; Table II, 2 WAT, 0.06 kg/h): 0 (0-24% control)
- post-emergent herbicidal activity index (Velvetleaf; Table II, 4 WAT, 0.28 kg/h): 1 (25-49% control)
- post-emergent herbicidal activity index (Velvetleaf; Table II, 4 WAT, 1.12 kg/h): 1 (25-49% control)
- post-emergent herbicidal activity index (Velvetleaf; Table II, 4 WAT, 5.6 kg/h): 1 (25-49% control)
- post-emergent herbicidal activity index (Soybean; 2 WAT, 0.01 kg/h): 0 (0-24% control)
- post-emergent herbicidal activity index (Soybean; 2 WAT, 0.06 kg/h): 0 (0-24% control)
- post-emergent herbicidal activity index (Soybean; 4 WAT, 0.28 kg/h): 2 (50-74% control)
- post-emergent herbicidal activity index (Soybean; 4 WAT, 1.12 kg/h): 2 (50-74% control)
- post-emergent herbicidal activity index (Soybean; 4 WAT, 5.6 kg/h): 3 (75-99% control)
